Data: patent US4339426A, “Bleomycin analog” (Regents of the University of California, priority 1980, dated 1982)

How the values were obtained:
VX2 adenocarcinomas = assay: Tumor localization scans in rabbits bearing VX2 adenocarcinomas; type: in vivo, white rabbits; conditions: for concentration of radioactivity in kidneys and bladder: two hours after injection
Protocol: Solutions of the indium-111 chelates of BLEDTA (A) or BLEDTA (B) were injected into the ear veins of white rabbits bearing type VX2 adenocarcinomas implanted under the right foreleg and the right hind leg. Two hours after injection, and again 18 to 24 hours after injection, the rabbits were scanned with a gamma camera, which provides a two-dimensionaldisplay of the distribution of radioactivity in the body. Scans were obtained 24 hours after injection of 700 μCi of ^111 In-BLEDTA(A).

KHJJ tumor = assay: Organ distribution and tumor uptake of 111In-BLEDTA(B) in BALB/c mice with KHJJ tumor (Table II); type: in vivo
Protocol: The two bleomycin analogs-BLEDTA(A) and (B)-were rapidly and specifically labelled with ^111 In^3.spsp.+. A small aliquot of a dilute solution (10^-4 M) of BLEDTA(A) and (B) respectively in 0.1 M citrate (pH 2.8) was added to a container of dry ^111 InCl3, and incubated for 5 minutes at room temperature. The solutions were then diluted with normal saline solution for injection.
Following the injection of ^111 In-BLEDTA(B) into the tail veins of specially prepared BALB/c mice, the organ distribution and tumor uptake of radioactivity were determined. A tumor line, "KHJJ", derived from a primary mammary carcinoma arising in a mouse and maintained for over 100 transplant generations was used for the assay. Transplantation was by subcutaneous implantation of tumor fragments about 1 mm in diameter into the flank. The studies were carried out after 14 days of growth, when the tumor had reached a size of about 1 cm^3. On histological examination,the tumor has a "carcinoma-like" pattern with a predominance of islands of round or polygonal malignant cells with little stroma and a generally undifferentiated appearance. After transplantation, the tumor takes in almost all animals and grows without metastasizing or killing the mice within 14 days.
[…] After 18 hours, each mouse was anesthetized with ether, and blood was collected from the jugular vein into two preweighed capillary tubes. The mouse then was killed instantly by cervical dislocation and the major organs excised. Samples of muscle, skin, bone (left femur plus marrow), tail, and tumor also were taken. All tissue samples were weighed immediately after excision and counted in a well-type scintillation counter.

[1] = 24 hours after injection of 700 μCi
[2] = Table II, BLEDTA B 18 hours after tail vein injection

SMILES	visualization of small tumor 1 cm in diameter under right foreleg (VX2 adenocarcinomas; [1])	visualization of tumor 2 to 3 cm in diameter under right hind leg (VX2 adenocarcinomas; [1])	concentration of radioactivity in kidneys and bladder (VX2 adenocarcinomas)	uptake of radioactivity in liver and bone (KHJJ tumor; 18 hours)	Distribution and uptake: Blood (KHJJ tumor; [2])	Distribution and uptake: Bone (KHJJ tumor; [2])	Distribution and uptake: Kidneys (KHJJ tumor; [2])	Distribution and uptake: Liver (KHJJ tumor; [2])	Distribution and uptake: Lungs (KHJJ tumor; [2])	Distribution and uptake: Muscle (KHJJ tumor; [2])	Distribution and uptake: Skin (KHJJ tumor; [2])	Distribution and uptake: Spleen (KHJJ tumor; [2])	Distribution and uptake: Tumor (KHJJ tumor; Table II, KHJJ tumor, BLEDTA B 18 hours after tail vein injection)	tumor/organ radioactivity concentration ratios (KHJJ tumor; all organs examined except the kidneys)
Cc1c(N)nc(C(CC(N)=O)NCC(N)C(N)=O)nc1C(=O)NC(C(=O)NC(C)C(O)C(C)C(=O)NC(C(=O)NCCc1nc(-c2nc(C(=O)NCCC[S+](C)CC(=O)Nc3ccc(C(CN(CC(=O)O)CC(=O)O)N(CC(=O)O)CC(=O)O)cc3)cs2)cs1)C(C)O)C(OC1OC(CO)C(O)C(O)C1OC1OC(CO)C(O)C(OC(N)=O)C1O)c1cnc[nH]1 (stereo not drawn) [BLEDTA(A)]	clearly visualized	strikingly evident	high concentrations of radioactivity in the kidneys and bladder	–	–	–	–	–	–	–	–	–	–	–
Cc1c(N)nc(C(CC(N)=O)NCC(N)C(N)=O)nc1C(=O)NC(C(=O)NC(C)C(O)C(C)C(=O)NC(C(=O)NCCc1nc(-c2nc(C(=O)NCCCSCC(=O)Nc3ccc(C(CN(CC(=O)O)CC(=O)O)N(CC(=O)O)CC(=O)O)cc3)cs2)cs1)C(C)O)C(OC1OC(CO)C(O)C(O)C1OC1OC(CO)C(O)C(OC(N)=O)C1O)c1cnc[nH]1 (stereo not drawn) [BLEDTA(B)]	–	–	high concentrations of radioactivity in the kidneys and bladder	quite low	.205 ± .066 % of injected radioactivity pe	.188 ± .080 % of injected radioactivity pe	1.023 ± .333 % of injected radioactivity pe	.263 ± .068 % of injected radioactivity pe	.254 ± .067 % of injected radioactivity pe	.063 ± .015 % of injected radioactivity pe	.166 ± .052 % of injected radioactivity pe	.327 ± .088 % of injected radioactivity pe	.393 ± .015 % of injected radioactivity pe	Favorable
